Assay: gradient 5% acetonitrile 3 min, to 50% in 2 min, to 85% in 15 min, held 3 min, 100 µL/min
Conditions: column: Zorbax Extend-C18 2.1 x 50 mm; eluents: water / acetonitrile, 0.1% formic acid
How it was run: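 A Zorbax Extend-C18 column (2.1 × 50 mm, 1.8 μm) run at 100 μL/min with water and acetonitrile, both containing 0.1% formic acid, separated mixtures of ~100 pure standards. The HPLC was coupled to a quadrupole time-of-flight mass spectrometer operated in positive and negative ionization mode, with dead and dwell volumes of 40 μL and 900 μL. Each retention time was taken from a computationally picked adduct peak that was then manually inspected.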

RP-LC retention time | SMILES
938 s | COc1ccc(C(=O)NC2(c3nc(-c4cccnc4)no3)CCCCC2)cc1F
1270 s | COc1cccc(C2Cn3nnc(-c4nc(-c5ccc(C)c(C)c5)no4)c3CO2)c1 (centres undefined)
557 s | COc1ccc(C(=O)N2CCn3c(C)nnc3C2)c(OC)c1
649 s | COc1ccc(NC(=O)N2CCN(C3=CC4=NC(C)CN4C=N3)CC2)c(C)c1 (centres undefined)
1090 s | Cc1nn(CC(=O)NC2CCCCCC2)c(=O)c2c(-n3cccc3)n(-c3cccc(F)c3)nc12
857 s | C[C@H]1CN(C(=O)c2cc(Cl)ccc2F)C[C@@H]1c1nc(-c2ccncc2)no1
651 s | CC(C)NC(=O)C1Cn2cccc2C(=O)N1C (centres undefined)
905 s | O=S(=O)(c1ccccc1)N1CC2CN(S(=O)(=O)c3cccc(F)c3)CC(C1)O2
932 s | CCN1C(=O)c2ccccc2Oc2ccc(C(=O)NCc3cc(OC)ccc3OC)cc21
608 s | Cc1nc2c(c(=O)n1CC(=O)NCc1cccs1)CCN(Cc1ccccc1)C2
1170 s | CCOc1ccccc1NC(=O)CSc1ncc(-c2cccc(Br)c2)o1
712 s | CSc1ncccc1-c1nnc(C)o1
553 s | O=c1[nH]c2cc(Br)cnc2[nH]c1=O
877 s | Cc1ccc(N2CN(CC#N)S(=O)(=O)c3cccnc32)cc1
1020 s | Cc1ccc(S(=O)(=O)N2CC(=O)N(c3cccc(F)c3)C(C)(C(=O)NCCC(C)C)C2)cc1 (centres undefined)
650 s | CNC(=O)C1CCCN(c2nc3ncn(CC(=O)Nc4ccc(F)cc4Cl)c(=O)c3s2)C1 (centres undefined)
1030 s | CCc1ccc(NS(=O)(=O)c2cc(-c3nc(C)cs3)cs2)cc1
586 s | O=C(Cn1cnc2ccccc21)N1CCN(Cc2nc(-c3ccc(F)cc3)cs2)CC1
1230 s | CC(C)n1c(=O)c2ccccc2n(Cc2nc(-c3ccc(Br)cc3)no2)c1=O
872 s | O=C(CC1CCCC1)NCC1(c2ccccc2)CCCOCC1 (centres undefined)
885 s | CCc1nn2c(CNC(=O)c3cccc(OC)c3)c(-c3ccccc3)nc2s1
678 s | O=C(CN1CCC(c2nc(-c3ccc(F)cc3)no2)CC1)NC1CCCC1
741 s | CCCNC(=O)C1CCCN(c2nc3ncn(CC(=O)Nc4ccc(CC)cc4)c(=O)c3s2)C1 (centres undefined)

RP-LC retention time | SMILES
848 s | O=C(NCc1nc(-c2ccc(NS(=O)(=O)c3cccs3)cc2)no1)c1ccccc1
1030 s | CCOc1ccc(NS(=O)(=O)c2cc(C(=O)N3CCN(c4ccc(C)cc4C)CC3)n[nH]2)cc1
1040 s | COc1ccc(N2CCN(c3cc(SCC(=O)Nc4cc(F)ccc4C)ncn3)CC2)cc1
679 s | Cc1nn2c(CNC(=O)Cc3cccc(C(F)(F)F)c3)c(C)nc2s1
978 s | CC1(C)C(=O)N(CC(=O)Nc2cccc(Cl)c2)c2ccccc21
954 s | CCS(=O)(=O)N1CCCc2cc(C(=O)Nc3cc(OC)ccc3OC)ccc21
939 s | COc1ccc(NC(=O)c2cn(-c3cc(N4CCCCC4C)ncn3)cn2)cc1OC (centres undefined)
777 s | O=C(Nc1cccc2cccnc12)C1COCC(=O)N1Cc1ccccc1 (centres undefined)
636 s | O=C(O)c1ccc(OCC(=O)C2CC2)cc1
891 s | COc1cccc(CNC(=O)C2CCN(C(=O)c3cc4oc5ccccc5c4n3C)CC2)c1OC
1220 s | COc1ccc2c(c1)-c1nc(NC(=O)c3ccc(OC)c(Br)c3)sc1CC2
975 s | Cc1ccccc1CNC(=O)C1CCN(S(C)(=O)=O)c2cc(Cl)ccc2O1 (centres undefined)
729 s | O=C(Cn1nc(C2CC2)c2cnn(-c3ccc(F)cc3)c2c1=O)NCC1CCCO1 (centres undefined)
616 s | O=C(NCCn1nnc2cc(C(=O)N3CCCC3)ccc21)Nc1ccccc1
806 s | Cc1ccc(C(=O)N2CC(c3nc(CCOCC4CC4)no3)C2)s1
1010 s | O=C(Nc1cccc(OCc2nnc(-c3ccc(Cl)cc3)o2)c1)c1ccsc1
584 s | Cc1ccc(NC(=O)N2CCN(CCn3cnc4cccnc43)CC2)c(Cl)c1
872 s | Cc1nc(NC2CCCCC2)sc1C(=O)Nc1cccc(F)c1
740 s | CCN(CC)CCCNC(=O)C(C)n1c(=O)c(C(F)(F)F)nc2cc(C)c(C)cc21 (centres undefined)
770 s | Cc1cc(C(=O)NCC(C)C)c2cccc(Cl)c2n1
753 s | CC(=O)OCCn1c([N+](=O)[O-])cnc1/C=[N+](\[O-])C1CCCCC1
1120 s | CCn1c(=O)c2ccccc2n(Cc2nc(-c3ccc(F)c(Br)c3)no2)c1=O
729 s | Cc1cc(N2CCCC2)n2nc(-c3ccccc3C)nc2n1

RP-LC retention time | SMILES
1020 s | Cc1nc2cc(-c3noc(-c4cccc(F)c4)n3)ccc2n(C)c1=O
797 s | O=S(=O)(Cc1ccccc1)N1CCC(c2noc(-c3cnccn3)n2)C1 (centres undefined)
888 s | COc1ccc(CNC(=O)Cn2c(=O)cc(-c3nc(C4CC4)no3)c3ccccc32)cc1
896 s | CN(CCc1noc(-c2ccccc2)n1)C(=O)NCCc1ccccc1
1060 s | Cc1ccc(-c2nc(Cn3nnc(C(=O)NC4CCCC4)c3C)c(C)o2)cc1
718 s | C=CCN1C(=O)C(C(=O)N2CCOCC2)C2CC1(C)Oc1ccccc12 (centres undefined)
722 s | CCC1CCCCN1C(=O)c1cnc2nc(C)ccc2c1Nc1cc(C)cc(C)c1 (centres undefined)
689 s | CCOc1ccc(N2CCn3c2nc2c3c(=O)n(CC(=O)O)c(=O)n2C)cc1
1030 s | CCn1nc(C)c2c(-c3ccccc3)cc(OC(C)C(=O)Nc3ccc4c(c3)OCO4)nc21 (centres undefined)
867 s | Cc1noc(-c2ccnc(-n3cnc(C(=O)NC(C)c4ccccc4)c3)c2)n1 (centres undefined)
578 s | COc1cc(OC)cc(C(=O)N2CCn3cnnc3C2)c1
1210 s | CCCn1c(=O)c(C)nc2cc(-c3noc(-c4cccc(F)c4)n3)ccc21
826 s | CCCc1ccc(S(=O)(=O)N2CCC3(CC2)NCCN=C3NCc2ccc(OC)cc2)cc1
916 s | Cc1ccc2[nH]cc(CCN3CC(C(=O)Nc4ccc(Br)cc4)CC3=O)c2c1 (centres undefined)
810 s | Cc1ccc(-n2cc(C(=O)NCCCOC(C)C)nn2)cc1
1240 s | Cc1nn(-c2ccc(F)cc2)c2nc(N3CCCC(C(=O)NC4CCCCCC4)C3)sc12 (centres undefined)
716 s | Cc1csc(NC(=O)Cn2ccc3ccc(-c4nnc(C)o4)cc32)n1
787 s | COc1ccccc1C(=O)N1CCC2(CC1)NC(=O)c1cc(Cl)ccc1N2C
626 s | CN1CCC(NC(=O)c2ccc3c(c2)N(S(=O)(=O)c2ccccc2F)CC3)CC1
822 s | CC(C)(C)NC(=O)NCCC1CCN(S(=O)(=O)c2ccccc2)CC1
780 s | Cc1cccc(Nc2c(-c3ccc(C(=O)O)cc3)nc3cnccn23)c1C
634 s | CCCN(CCC#N)C(=O)CN1CC2=C(C1=O)C(c1ccccc1Cl)NC(=O)N2C (centres undefined)
579 s | O=C(NCc1ccncc1)C1CCCN(c2ncnc3c2oc2ccccc23)C1 (centres undefined)

RP-LC retention time | SMILES
560 s | CCOC(=O)c1cnc2ccc(OCC)cc2c1NCCN(C)C
899 s | Cc1nnc2ccc(S(=O)(=O)N(Cc3ccccc3)c3cc(F)cc(F)c3)cn12
766 s | COC(=O)c1c(NCc2ccc(C)o2)c2cccc(Cl)c2[nH]c1=O
633 s | CCCCN(CC)CCNC(=O)C1CCC(=O)N(c2ccc(OC)cc2)C1c1ccc(F)cc1 (centres undefined)
800 s | COC1CCC12CCN(C(=O)c1ccc(Cc3c(C)noc3C)o1)CC2 (centres undefined)
770 s | N#CC1=C(SCC(=O)NCc2ccccc2)NC(=O)CC1c1ccco1 (centres undefined)
880 s | CCC(=O)N(C1CCOCC1)C1CCN(S(=O)(=O)c2ccc(C)cc2C)CC1
666 s | O=C(C1=CCN(Cc2cccc(F)c2)CC1)N1CCN(c2ccccc2F)CC1
762 s | Cc1ccc(N2CCC(NC(=O)C3CCC3)C2=O)cc1C (centres undefined)
787 s | CCCCCOc1ccc(C(=O)CCNC(Cc2c[nH]c3ccccc23)C(=O)O)cc1 (centres undefined)
679 s | CCOC(=O)C1CCN(S(=O)(=O)c2cc3n(c2)CCCN(CC)C3=O)CC1
720 s | CSc1nnc(-c2nn(C)c3c2CN(C(=O)c2ccc(F)c(F)c2)CC3)n1C
584 s | CCCN1CCN(CCCNC(=O)CCCn2c(=O)c3cccn3c3ccc(F)cc32)CC1
766 s | COc1ccc(C2c3c(oc4cc(C)c(C)cc4c3=O)C(=O)N2CCCN2CCOCC2)cc1OC (centres undefined)
821 s | CCc1nc2cc(-c3noc(CNC(=O)c4ccccc4)n3)ccc2o1
637 s | CC(=O)N1c2ccc(S(=O)(=O)N3CCCCCC3)cc2CC1C(=O)NCCN(C)C (centres undefined)
724 s | COc1ccc(CNc2nccn(-c3ccc4c(c3)OCO4)c2=O)cc1OC
607 s | N#Cc1ccccc1CN1C[C@@H](CO)[C@H](c2nc(C3CC3)no2)C1
789 s | CCn1cc(C2=CCN(C(=O)Nc3ccc4c(c3)OCCO4)CC2)c2cccnc21
838 s | CCn1ncn2cc(S(=O)(=O)NC(C)c3ccccc3)cc2c1=O (centres undefined)

Source: the METLIN SMRT retention time set (Domingo-Almenara et al. 2019)
